Measurements taken from PubChem BioAssay (NCI).
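In this assay, cells in 96-well plates receive the compound at five concentrations for 48 hours. Endpoints are linearly interpolated between the surrounding concentrations. TGI denotes the concentration required for complete inhibition of growth.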

Columns and labels:
Experiment in all cases: inhibition of tumour cell growth, NCI panel, 48 h
[1] = system: KM12 colon
[2] = system: UO-31 renal
[3] = system: UACC-257 melanoma
[4] = system: HT29 colon
[5] = system: NCI-H460 lung
[6] = system: HOP-62 NSCLC
[7] = system: HOP-92 NSCLC
[8] = system: OVCAR-4 ovarian
[9] = system: SNB-19 CNS
[10] = system: A549 NSCLC
[11] = system: SW-620 colon
[12] = system: HCT-116 colon
[13] = system: SK-OV-3 ovarian
[14] = system: UACC-62 melanoma
[15] = system: HL-60(TB) leukemia
[16] = system: CAKI-1 renal
[17] = system: OVCAR-8 ovarian
[18] = system: NCI-H522 lung
[19] = system: HCC-2998 colon
[20] = system: SNB-75 CNS
[21] = system: SN12C renal
[22] = system: BT-549 breast
[23] = system: OVCAR-3 ovarian
[24] = system: TK-10 renal
[25] = system: CCRF-CEM leukemia
[26] = system: SK-MEL-5 melanoma
[27] = system: DU-145 prostate
[28] = system: SF-539 CNS
[29] = system: LOX IMVI melanoma
[30] = system: SF-295 CNS
[31] = system: HCT-15 colon
[32] = system: MDA-MB-231 breast
[33] = system: K-562 leukemia
[34] = system: MOLT-4 leukemia
[35] = system: MDA-N
[36] = system: A498 renal
[37] = system: NCI/ADR-RES ovarian
[38] = system: OVCAR-5 ovarian
[39] = system: HS 578T breast
[40] = system: SK-MEL-2 melanoma
[41] = system: 786-0 renal
[42] = system: COLO 205 colon
[43] = system: MCF7 breast
[44] = system: MALME-3M melanoma
[45] = system: MDA-MB-435
[46] = system: PC-3 prostate
[47] = system: NCI-H23 lung
[48] = system: IGROV1 ovarian
[49] = system: RPMI-8226 leukemia
[50] = system: ACHN renal
[51] = system: SR leukemia
[52] = system: M14 melanoma
[53] = system: T-47D breast
[54] = system: U251 CNS
[55] = system: NCI-H226 lung
[56] = system: SF-268 CNS
[57] = system: EKVX NSCLC
[58] = system: SK-MEL-28 melanoma
[59] = system: RXF 393 renal

SMILES: O=C(O)Cc1cccc2c(=O)c3cccc([N+](=O)[O-])c3[nH]c12
- TGI [1]: > 100 µM
- TGI [2]: > 100 µM
- TGI [3]: > 100 µM
- TGI [4]: > 100 µM
- TGI [5]: > 100 µM
- TGI [6]: > 100 µM
- TGI [7]: > 100 µM
- TGI [8]: > 100 µM
- TGI [9]: > 100 µM
- TGI [10]: > 100 µM
- TGI [11]: > 100 µM
- TGI [12]: > 100 µM
- TGI [13]: > 100 µM
- TGI [14]: 76 µM
- TGI [15]: > 100 µM
- TGI [16]: > 100 µM
- TGI [17]: > 100 µM
- TGI [18]: > 100 µM
- TGI [19]: > 100 µM
- TGI [20]: > 100 µM
- TGI [21]: > 100 µM
- TGI [22]: > 100 µM
- TGI [23]: > 100 µM
- TGI [24]: > 100 µM
- TGI [25]: > 100 µM
- TGI [26]: > 100 µM
- TGI [27]: > 100 µM
- TGI [28]: 78.1 µM
- TGI [29]: > 100 µM
- TGI [30]: > 100 µM
- TGI [31]: > 100 µM
- TGI [32]: > 100 µM
- TGI [33]: > 100 µM
- TGI [34]: > 100 µM
- TGI [35]: > 100 µM
- TGI [36]: > 100 µM
- TGI [37]: > 100 µM
- TGI [38]: > 100 µM
- TGI [39]: > 100 µM
- TGI [40]: > 100 µM
- TGI [41]: > 100 µM
- TGI [42]: 39.4 µM
- TGI [43]: > 100 µM
- TGI [44]: 97.6 µM
- TGI [45]: > 100 µM
- TGI [46]: > 100 µM
- TGI [47]: > 100 µM
- TGI [48]: > 100 µM
- TGI [49]: > 100 µM
- TGI [50]: > 100 µM
- TGI [51]: > 100 µM
- TGI [52]: > 100 µM
- TGI [53]: > 100 µM
- TGI [54]: > 100 µM

SMILES: CCN1C[C@]2(C)CC[C@H](OC)C34C5C[C@@H]6[C@@H](OC)C[C@@](OC)(C5[C@H]6OCc5ccccc5)C(C13)[C@H](OC(C)=O)[C@@H]42 (stereo partly specified)
- TGI [1]: > 100 µM
- TGI [2]: > 100 µM
- TGI [3]: > 100 µM
- TGI [4]: > 100 µM
- TGI [5]: > 100 µM
- TGI [6]: > 100 µM
- TGI [7]: > 100 µM
- TGI [8]: > 100 µM
- TGI [55]: > 100 µM
- TGI [9]: > 100 µM
- TGI [10]: > 100 µM
- TGI [11]: > 100 µM
- TGI [12]: > 100 µM
- TGI [13]: > 100 µM
- TGI [14]: > 100 µM
- TGI [15]: > 100 µM
- TGI [17]: > 100 µM
- TGI [20]: 36 µM
- TGI [21]: > 100 µM
- TGI [22]: > 100 µM
- TGI [23]: > 100 µM
- TGI [24]: > 100 µM
- TGI [25]: > 100 µM
- TGI [26]: > 100 µM
- TGI [27]: > 100 µM
- TGI [28]: > 100 µM
- TGI [29]: > 100 µM
- TGI [30]: > 100 µM
- TGI [31]: > 100 µM
- TGI [32]: > 100 µM
- TGI [33]: > 100 µM
- TGI [34]: > 100 µM
- TGI [35]: > 100 µM
- TGI [36]: > 100 µM
- TGI [37]: > 100 µM
- TGI [38]: > 100 µM
- TGI [39]: > 100 µM
- TGI [40]: > 100 µM
- TGI [41]: > 100 µM
- TGI [56]: > 100 µM
- TGI [57]: > 100 µM
- TGI [42]: > 100 µM
- TGI [43]: > 100 µM
- TGI [58]: > 100 µM
- TGI [44]: > 100 µM
- TGI [45]: > 100 µM
- TGI [46]: > 100 µM
- TGI [47]: > 100 µM
- TGI [48]: > 100 µM
- TGI [49]: > 100 µM
- TGI [50]: > 100 µM
- TGI [51]: > 100 µM
- TGI [52]: > 100 µM
- TGI [53]: > 100 µM
- TGI [59]: > 100 µM
- TGI [54]: > 100 µM

SMILES: O=c1[nH]c(=O)n(C2C(CO)OC(CO)C2O)cc1F (stereo unspecified)
- TGI [1]: > 100 µM
- TGI [2]: > 100 µM
- TGI [3]: > 100 µM
- TGI [4]: > 100 µM
- TGI [5]: > 100 µM
- TGI [6]: > 100 µM
- TGI [7]: > 100 µM
- TGI [8]: > 100 µM
- TGI [55]: > 100 µM
- TGI [9]: > 100 µM
- TGI [10]: > 100 µM
- TGI [11]: > 100 µM
- TGI [12]: > 100 µM
- TGI [13]: > 100 µM
- TGI [14]: > 100 µM
- TGI [16]: > 100 µM
- TGI [17]: > 100 µM
- TGI [18]: > 100 µM
- TGI [19]: > 100 µM
- TGI [20]: > 100 µM
- TGI [21]: > 100 µM
- TGI [22]: > 100 µM
- TGI [23]: > 100 µM
- TGI [24]: > 100 µM
- TGI [25]: > 100 µM
- TGI [26]: > 100 µM
- TGI [27]: > 100 µM
- TGI [28]: > 100 µM
- TGI [29]: > 100 µM
- TGI [30]: > 100 µM
- TGI [31]: > 100 µM
- TGI [32]: > 100 µM
- TGI [33]: > 100 µM
- TGI [34]: > 100 µM
- TGI [35]: > 100 µM
- TGI [36]: > 100 µM
- TGI [37]: > 100 µM
- TGI [38]: > 100 µM
- TGI [39]: > 100 µM
- TGI [40]: > 100 µM
- TGI [41]: > 100 µM
- TGI [56]: > 100 µM
- TGI [57]: > 100 µM
- TGI [42]: > 100 µM
- TGI [43]: > 100 µM
- TGI [58]: > 100 µM
- TGI [44]: > 100 µM
- TGI [45]: > 100 µM
- TGI [46]: > 100 µM
- TGI [47]: > 100 µM
- TGI [48]: > 100 µM
- TGI [49]: > 100 µM
- TGI [50]: > 100 µM
- TGI [51]: > 100 µM
- TGI [52]: > 100 µM
- TGI [53]: > 100 µM
- TGI [59]: > 100 µM
- TGI [54]: > 100 µM

SMILES: Cc1ccc(S(=O)(=O)N2CCN(S(=O)(=O)c3ccc(C)cc3)CCN(S(=O)(=O)c3ccc(C)cc3)Cc3cc(Br)c(Br)cc3CN(S(=O)(=O)c3ccc(C)cc3)CC2)cc1
- TGI [1]: > 100 µM
- TGI [2]: > 100 µM
- TGI [3]: > 100 µM
- TGI [4]: > 100 µM
- TGI [5]: > 100 µM
- TGI [6]: > 100 µM
- TGI [7]: 92.4 µM
- TGI [8]: > 100 µM
- TGI [55]: > 100 µM
- TGI [9]: > 100 µM
- TGI [10]: > 100 µM
- TGI [11]: > 100 µM
- TGI [12]: > 100 µM
- TGI [13]: > 100 µM
- TGI [14]: > 100 µM
- TGI [15]: > 100 µM
- TGI [16]: > 100 µM
- TGI [17]: > 100 µM
- TGI [18]: > 100 µM
- TGI [19]: > 100 µM
- TGI [20]: > 100 µM
- TGI [21]: > 100 µM
- TGI [22]: > 100 µM
- TGI [23]: > 100 µM
- TGI [24]: > 100 µM
- TGI [25]: > 100 µM
- TGI [26]: > 100 µM
- TGI [27]: > 100 µM
- TGI [28]: > 100 µM
- TGI [29]: > 100 µM
- TGI [30]: > 100 µM
- TGI [31]: > 100 µM
- TGI [32]: 71.1 µM
- TGI [33]: > 100 µM
- TGI [34]: > 100 µM
- TGI [35]: > 100 µM
- TGI [36]: > 100 µM
- TGI [37]: > 100 µM
- TGI [38]: > 100 µM
- TGI [39]: > 100 µM
- TGI [41]: > 100 µM
- TGI [56]: > 100 µM
- TGI [57]: > 100 µM
- TGI [42]: > 100 µM
- TGI [43]: > 100 µM
- TGI [58]: > 100 µM
- TGI [44]: > 100 µM
- TGI [45]: > 100 µM
- TGI [46]: > 100 µM
- TGI [47]: > 100 µM
- TGI [48]: > 100 µM
- TGI [49]: > 100 µM
- TGI [50]: > 100 µM
- TGI [51]: > 100 µM
- TGI [52]: 43.2 µM
- TGI [53]: > 100 µM
- TGI [59]: > 100 µM
- TGI [54]: > 100 µM
